These results are taken from patent publication EP4741383A1, “COMPOUND AND USE THEREOF AS ANTI-CANCER DRUG” (Tyligand Bioscience (Shanghai) Limited, priority 2023, dated 2025).

The structures appear in SMILES notation.

The target of one experiment is T1, SHP2 enzyme (catalytic domain, amino acid sequence 224-528) (Homo sapiens, UniProt Q06124).
T1 construct: purchased GenScript
T1 sequence (Q06124 224-528): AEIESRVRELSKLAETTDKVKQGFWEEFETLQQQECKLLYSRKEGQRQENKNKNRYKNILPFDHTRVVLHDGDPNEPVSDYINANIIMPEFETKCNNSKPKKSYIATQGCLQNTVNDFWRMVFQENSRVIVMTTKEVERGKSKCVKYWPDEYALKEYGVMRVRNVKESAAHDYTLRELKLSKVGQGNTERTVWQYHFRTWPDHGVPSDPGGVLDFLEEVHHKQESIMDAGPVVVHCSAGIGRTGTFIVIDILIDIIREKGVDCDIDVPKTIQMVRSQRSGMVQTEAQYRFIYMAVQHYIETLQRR
The experiment can be described thus: SHP2 enzyme inhibition assay (DiFMUP substrate, fluorescence). The conditions noted are these: SHP2 catalytic domain, DiFMUP substrate, 30 min pre-incubation; read-out: S HP2 I C50. It is filed as biochemical. As to the method:
This experiment evaluates the inhibitory effect of the test compounds on SHP2 enzyme activity by detecting the reaction between the human recombinant protein SHP2 enzyme and the substrate.
The stock solutions of the reaction buffer components were thawed and mixed homogeneously at room temperature, to prepare the reaction buffer (55 mM HEPES pH = 7.2 (Sigma, Cat. No. #PHR1428), 100 mM NaCl (Beyotime, Cat. No. #ST374, 5 M solution), 0.5 mM EDTA (Beyotime, Cat. No. #ST066), 1 mM DL-Dithiothreitol (DTT) (Sigma, Cat. No. #D9779), 0.002% BSA (Solarbio, Cat. No. #A8010), 0.001% Brij35 (Brij® L23 solution (Brij35) (Sigma, Cat. No. #B4184)). The SHP2 enzyme (catalytic domain, amino acid sequence 224-528, expressed and purified by GenScript) was thawed slowly on ice. 1 µL of this solution (1.37 mg/mL) was added to 386 µL of the reaction buffer to dilute it to 100 nM. Then, 120 µL of the 100 nM SHP2 enzyme solution was added to 2880 µL of reaction buffer to prepare a 4 nM SHP2 enzyme working solution. The test compounds and the specific inhibitor of SHP2 (11a-1, used as a positive control, Zeng, L. et al., J. Med. Chem. 2014, 57, 6594-6609) were prepared as 10 mM DMSO solutions. 10 µL of the 10 mM compound solution was mixed with 20 µL of DMSO solution, and then serially diluted 3-fold, resulting in 10 concentrations. 1 µL of the serially diluted solution was mixed with 99 µL of reaction buffer to obtain a 10-fold diluted compound working solution.
A 96-well black half-area microplate (Greiner, catalog #675076) was used. 25 µL of 4 nM SHP2 enzyme working solution and 5 µL of 10x compound working solution were added to each well and incubated at room temperature for 30 minutes. 15 µL of DiFMUP substrate (Thermo Fisher Scientific, catalog #D6567) was added to 2985 µL of reaction buffer to prepare a 50 µM substrate working solution. After incubation of the compounds and SHP2 enzyme, 20 µL of the 50 µM substrate working solution was added to each well and incubated at room temperature for 5 minutes. The plate was then read on a multi-mode microplate reader (BioTek, Synergy H1) at 340 nm/450 nm fluorescence.
Data were analyzed using GraphPad Prism 9.0 software. A non-linear S-curve regression dose-response-inhibition equation was used to fit the data and generate the dose-response curve, from which the IC50 value was calculated. [formula]
For `O=C(Nc1ccc(-c2cc3cc(F)c(-c4nnn[nH]4)cc3n2C2CCC2)cc1)C(=O)Nc1ccc(N2CC3CC(CO)CC3C2)cc1` (stereo not shown) [Example 119], the IC50 came out at 55 nM.

On to `CC1(n2c(-c3ccc(NC(=O)C(=O)Nc4ccc(N5CC6(CCOCC6)C5)cc4)cc3)cc3cc(F)c(-c4nnn[nH]4)cc32)CCC1` [Example 58], for which the IC50 is 31 nM.

With `CCC(O)C1CCN(c2ccc(NC(=O)C(=O)Nc3ccc(-c4cc5cc(F)c(-c6nnn[nH]6)cc5n4C4CCC4)cc3)cc2)CC1` (stereo not shown) [Example 31], the IC50 is 88 nM.

Turning to `CC(C)(O)C1CCN(c2ccc(NC(=O)C(=O)Nc3ccc(-c4cc5cc(F)c(-c6nnn[nH]6)cc5n4Cc4ccccc4)cc3)cc2)CC1` [Example 36], the IC50 turned out to be 52 nM.

`CC1(n2c(-c3ccc(NC(=O)C(=O)Nc4ccc(N5CC6COCC6C5)cc4)cc3)cc3cc(F)c(-c4nnn[nH]4)cc32)CCC1` (stereo not shown) [Example 115]: the IC50 came out at 36 nM.

Regarding `CC1(O)CC2(CCN(c3ccc(NC(=O)C(=O)Nc4ccc(-c5cc6cc(F)c(-c7nnn[nH]7)cc6n5C5CCC5)cc4)cc3)C2)C1` (stereo not shown) [Example 91], the IC50 was 93 nM.

As for `CC1(n2c(-c3ccc(NC(=O)C(=O)Nc4ccc(N5CCC6(CCC(O)C6)CC5)cc4)cc3)cc3cc(F)c(-c4nnn[nH]4)cc32)CC1` (stereo not shown) [Example 102], the IC50 turned out to be 49 nM.

As for `CC1(n2c(-c3ccc(NC(=O)C(=O)Nc4ccc(N5CC6(CCC(CO)CC6)C5)cc4)cc3)cc3cc(F)c(-c4nnn[nH]4)cc32)CCC1` [Example 86], the IC50 is 64 nM.

On to `CC1(n2c(-c3ccc(NC(=O)C(=O)Nc4ccc(N5CCC6(CCC(CO)C6)CC5)cc4)cc3)cc3cc(F)c(-c4nnn[nH]4)cc32)CCC1` (stereo not shown) [Example 107], for which the IC50 was 138 nM.

Turning to `CC(C)(O)C1CC2(CCN(c3ccc(NC(=O)C(=O)Nc4ccc(-c5cc6cc(F)c(-c7nnn[nH]7)cc6n5C5CCC5)cc4)cc3)CC2)C1` [Example 98], the IC50 was determined as 83 nM.

With `CC1(n2c(-c3ccc(NC(=O)C(=O)Nc4ccc(N5CC6(CCC(O)CC6)C5)cc4)cc3)cc3cc(F)c(-c4nnn[nH]4)cc32)CCC1` [Example 82], the IC50 came to 30 nM.

Staying with this experiment, now noted: relative to 11a-1, IC50 = 0.108 µM.
`CC1(n2c(-c3ccc(NC(=O)C(=O)Nc4ccc(N5CC6(CCOCC6)C5)cc4)cc3)cc3cc(F)c(-c4nnn[nH]4)cc32)CCC1` [Example 58]: the “SHP2 IC50 times lower than control compound 11a-1” value is 3-4 times.

As to `CC1(n2c(-c3ccc(NC(=O)C(=O)Nc4ccc(N5CC6COCC6C5)cc4)cc3)cc3cc(F)c(-c4nnn[nH]4)cc32)CCC1` (stereo not shown) [Example 115], the “SHP2 IC50 times lower than control compound 11a-1” value is listed as 3-4 times.

For the compound `CC1(n2c(-c3ccc(NC(=O)C(=O)Nc4ccc(N5CC6(CCC(O)CC6)C5)cc4)cc3)cc3cc(F)c(-c4nnn[nH]4)cc32)CCC1` [Example 82], the “SHP2 IC50 times lower than control compound 11a-1” value is 3-4 times.

Another experiment deals with KYSE520. Description: CellTiter-Glo cell proliferation inhibition, KYSE520. The settings on record: Homo sapiens, KYSE-520; KYSE520 cells, 120 hours, CellTiter-Glo. It is filed as cell-based, human. An excerpt: In this study, the CellTiter-Glo® Luminescent Cell Viability Assay kit from Promega was used to evaluate the inhibitory effects of the disclosed compounds on the proliferation of cell lines KYSE520 (a human esophageal squamous cell carcinoma cell line dependent on SHP2 for growth), MeWo (a human malignant melanoma cell line), and MV4-11 (an RTK-mutant human acute monocytic leukemia cell line).
KYSE520 cells (Nanjing Kebaio Biotechnology Co., Ltd., Catalog #CBP60658) were thawed by rapidly shaking the cryovial in a 37 °C water bath to thaw within 1 minute. The thawed cell suspension was mixed homogeneously with RPMI 1640 medium (HyClone, Catalog #SH30027.01) containing 10% FBS (ExCell, Catalog #FND500), centrifuged at 1000 rpm for 5 minutes, and the supernatant was discarded. The cell pellet was resuspended in 5 mL of complete culture medium (RPMI 1640 medium containing 10% FBS) and placed in a cell culture flask with 25 cm^2 of bottom area, then cultured in a cell culture incubator at 37 °C, 95% humidity, and 5% CO2. Cell passaging was performed when the cell confluence reached approximately 80%. During cell passaging, the old culture medium was discarded, the cells were washed once with DPBS (Thermo Fisher, Catalog #14190-144), and 1 mL of trypsin (Thermo Fisher, Catalog #25200072) was added to digest the cells. When the cells dispersed into single cells and detached from the bottom of the culture flask, 3 mL of fresh complete culture medium was added to stop the digestion. After gently pipetting the cell suspension, 1/5 of the cell suspension was retained, 5 mL of fresh complete culture medium was added, and after mixing, the cells were placed in a cell culture flask for further culture. Cell plating was performed when the cell confluence again reached approximately 80%. During cell plating, following the cell passaging method, 1/5 of the cell suspension was retained for continued culture, and the remaining 4/5 of the cell suspension was placed in a 15 mL centrifuge tube. Cell viability was determined using the trypan blue exclusion method to ensure that cell viability was above 90%. A cell suspension with a density of 2.22 × 10^4 cells/mL was prepared using complete culture medium, and 135 µL of the cell suspension was added to a 96-well transparent flat-bottom black-walled cell culture plate (Greiner, Catalog #655090), resulting in a cell density of 3000 viable cells per well. A control group containing only complete culture medium without cells and compounds (i.e., culture medium control) and a control group containing cells but no compound (i.e., cell control) were set up. The cell plates were incubated overnight in a cell culture incubator. First, a 10 mM stock solution of the compound (Example compound and positive control compound 11a-1) in DMSO (Damas-beta, catalog #75927R) was serially diluted 3-fold to the 9th concentration, and a 10th concentration containing only DMSO (without compound) was also prepared as a control. Then, the DMSO solutions containing different concentrations of the compound were diluted 100-fold with complete culture medium, resulting in a 1% DMSO concentration in each solution. Finally, 15 µL of each solution was added to the corresponding wells of the cell culture plate, resulting in a starting compound concentration of 10 µM, with a 3-fold dilution between adjacent concentrations, and a final DMSO concentration of 0.1% in the cell culture plate. The cell plates were then incubated in the cell culture incubator for another 120 hours.
For endpoint detection, CellTiter-Glo reagent (Promega, catalog number #G7573, CellTiter-Glo® Luminescent Cell Viability Assay Kit) was melt and each cell plate was moved to room temperature for equilibration for 30 minutes. 75 µL (KYSE520 cells) or 50 µL (MeWo cells and MV 4-11 cells) of CellTiter-Glo was added to each well of the corresponding cell plate. The plates were shaken on a track-mounted shaker for 2 minutes to fully lyse the cells. […]
Consider `O=C(Nc1ccc(-c2cc3cc(F)c(-c4nnn[nH]4)cc3n2C2CCC2)cc1)C(=O)Nc1ccc(N2CC3CC(CO)CC3C2)cc1` (stereo not shown) [Example 119], for which the IC50 was 0.105 µM.

In turn, `CC1(n2c(-c3ccc(NC(=O)C(=O)Nc4ccc(N5CC6(CCOCC6)C5)cc4)cc3)cc3cc(F)c(-c4nnn[nH]4)cc32)CCC1` [Example 58] had an IC50 of 0.125 µM.

On to `CCC(O)C1CCN(c2ccc(NC(=O)C(=O)Nc3ccc(-c4cc5cc(F)c(-c6nnn[nH]6)cc5n4C4CCC4)cc3)cc2)CC1` (stereo not shown) [Example 31], for which the IC50 was found to be 0.116 µM.

In turn, `CC(C)(O)C1CCN(c2ccc(NC(=O)C(=O)Nc3ccc(-c4cc5cc(F)c(-c6nnn[nH]6)cc5n4Cc4ccccc4)cc3)cc2)CC1` [Example 36] yielded an IC50 of 0.12 µM.

`CC1(n2c(-c3ccc(NC(=O)C(=O)Nc4ccc(N5CC6COCC6C5)cc4)cc3)cc3cc(F)c(-c4nnn[nH]4)cc32)CCC1` (stereo not shown) [Example 115] had an IC50 of 0.11 µM.

`CC1(O)CC2(CCN(c3ccc(NC(=O)C(=O)Nc4ccc(-c5cc6cc(F)c(-c7nnn[nH]7)cc6n5C5CCC5)cc4)cc3)C2)C1` (stereo not shown) [Example 91] gave an IC50 of 0.101 µM.

On to `CC1(n2c(-c3ccc(NC(=O)C(=O)Nc4ccc(N5CCC6(CCC(O)C6)CC5)cc4)cc3)cc3cc(F)c(-c4nnn[nH]4)cc32)CC1` (stereo not shown) [Example 102], for which the IC50 was determined as 0.116 µM.

In turn, `CC1(n2c(-c3ccc(NC(=O)C(=O)Nc4ccc(N5CC6(CCC(CO)CC6)C5)cc4)cc3)cc3cc(F)c(-c4nnn[nH]4)cc32)CCC1` [Example 86] yielded an IC50 of 0.158 µM.

Take `CC1(n2c(-c3ccc(NC(=O)C(=O)Nc4ccc(N5CCC6(CCC(CO)C6)CC5)cc4)cc3)cc3cc(F)c(-c4nnn[nH]4)cc32)CCC1` (stereo not shown) [Example 107]: the IC50 worked out at 0.101 µM.

`CC(C)(O)C1CC2(CCN(c3ccc(NC(=O)C(=O)Nc4ccc(-c5cc6cc(F)c(-c7nnn[nH]7)cc6n5C5CCC5)cc4)cc3)CC2)C1` [Example 98]: the IC50 is 0.195 µM.

`CC1(n2c(-c3ccc(NC(=O)C(=O)Nc4ccc(N5CC6(CCC(O)CC6)C5)cc4)cc3)cc3cc(F)c(-c4nnn[nH]4)cc32)CCC1` [Example 82] showed an IC50 of 0.097 µM.
